Test in all cases: relative viability (nuclei count vs DMSO), 5 days (fraction); higher = more cells survive
Compound in assay [1]: C1CC(C1)(C(=O)O)C(=O)O.[NH2-].[NH2-].[Pt+2] [Carboplatin] + COc1cc2c(Oc3ccc(NC(=O)C4(C(=O)Nc5ccc(F)cc5)CC4)cc3F)ccnc2cc1OCCCN1CCOCC1 [Foretinib] (partner 0.25 µM)
The essentials: (§1)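 Cells from lung cancer lines were seeded into 1536-well plates and, one day later, dosed by pin tool. Treatments were either a single drug or a fixed dose of an anchor drug with five library-drug doses (not always all listed) in √10 steps. After 5 days, nuclei were stained in a one-step fixation (final 0.05% Triton X-100, 1% formaldehyde, 1 ug/ml Hoechst) and counted on 4× images, and relative viability is the treated-to-vehicle nuclei ratio, as the median of duplicate plates.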

Compound in assay [2]: NS(=O)(=O)OC[C@@H]1C[C@@H](n2ccc3c(N[C@H]4CCc5ccccc54)ncnc32)C[C@@H]1O [MLN4924] + CS(=O)(=O)CCNCc1ccc(-c2ccc3ncnc(Nc4ccc(OCc5cccc(F)c5)c(Cl)c4)c3c2)o1 [Lapatinib] (partner 2 µM)
The gist of the method: as §1

Compound in assay [3]: NS(=O)(=O)OC[C@@H]1C[C@@H](n2ccc3c(N[C@H]4CCc5ccccc54)ncnc32)C[C@@H]1O [MLN4924] + C[C@@H](Oc1cc(-c2cnn(C3CCNCC3)c2)cnc1N)c1c(Cl)ccc(F)c1Cl [Crizotinib] (partner 1 µM)
The essentials: as §1

Compound in assay [4]: CC[C@H](C)N1C=C(C2=C(C=C(C=C21)C3=CN=C(C=C3)N4CCNCC4)C(=O)NCC5=C(C=C(NC5=O)C)C)C [GSK126] + N=C(N)NC(=N)NCCc1ccccc1 [Phenformin] (partner 250 µM)
The essentials:
as §1

For UMC-11, the relative viability came to 1.03 in assay [1] (first compound 0.08 µM); 1.03 in assay [1] (first compound 0.253 µM); 1.06 in assay [1] (first compound 0.8 µM); 0.941 in assay [1] (first compound 2.53 µM); 0.718 in assay [1] (first compound 8 µM); 0.39 in assay [2] (first compound 0.04 µM). Moreover, the relative viability was found to be 0.383 in assay [2] (first compound 0.1265 µM); 0.271 in assay [2] (first compound 0.4 µM); 0.122 in assay [2] (first compound 1.265 µM); 0.143 in assay [2] (first compound 4 µM); 0.298 in assay [3] (first compound 0.04 µM); 0.184 in assay [3] (first compound 0.1265 µM). The relative viability in assay [3] (first compound 0.4 µM) worked out at 0.234; in assay [3] (first compound 1.265 µM) it was 0.0782; in assay [3] (first compound 4 µM), 0.0855; in assay [4] (first compound 0.08 µM), 0.35; in assay [4] (first compound 0.253 µM), 0.344; in assay [4] (first compound 0.8 µM) it was 0.312. Also, the relative viability in assay [4] (first compound 2.53 µM) amounted to 0.32; in assay [4] (first compound 8 µM), 0.3.

The values are drawn from the supplement of paper PMC10307832.
